US20240293314A1, “COMPOSITION FOR PARTICLE-MEDIATED TRANSPORT OF A DISSOLVED ACTIVE AGENT INTO HAIR FOLLICLES” (Charité – Universitätmedizin Berlin, priority 2021, published 2024)

Tests used:
[1] = type: in vitro ADME
Source text: FIG. 1: Confocal microscopic image of a skin section with hair follicle after topical application of fluorescein natrium salt (green fluorescent dye) dissolved in dispersion medium together with a caffeine nanosuspension.
Particle-containing formulations were applied as dispersions (particles in a liquid or semi-solid dispersion medium). Besides the particles, the dispersion medium also contained dissolved molecules, name the fluorescent molecule fluorescein, which is an organic compound soluble in water and alcohol.

[2] = type: in vitro ADME, porcine; conditions: pig, 1 h, 0.003 % w/w
Description: Three particle-free and three particle-containing formulations were prepared, each containing 0.003% F (dissolved in dispersion medium), and the penetration of F into hair follicles (HF) was studied.
Fluorescein (0.003% w/w) was added to dispersion media that contained no particles (water, TPGS-solution (1% w/w) or ethanol (96% v/v)) and was added to dispersion media that contained particles (1. curcumin nanocrystals (5% w/w dispersed in TPGS solution (1% w/w)—particle size was 257 nm, polydispersity index 0.26 determined by photon correlation spectroscopy); 2. quercetin nanocrystals (5% w/w dispersed in TPGS solution (1% w/w)—particle size was 580 nm, polydispersity index 0.36, determined by photon correlation spectroscopy); 3. Lipid nanoparticles (10% w/w dispersed in TPGS solution (1% w/w)—particle size was 195 nm, polydispersity index 0.09, determined by photon correlation spectroscopy).
The formulations (50 μl on a skin areal of 4 cm^2) were applied on fresh porcine ears (ventral side, massage for 60 s, penetration time 1 h at 32° C.). Skin biopsies (Ø 15 mm) were obtained from the treated skin areas from which skin sections (40 μm, 100 sections/biopsy) were prepared. The skin sections and the hair follicle sections were analyzed by epifluorescence microscopy. Images were taken and the penetration depth of the fluorescein was directly measured (n=3). […]

penetration depth with particles compared to the particle-free formulations [2]: > 160%
Structure (SMILES): O=C1OC2(c3ccc(O)cc3Oc3cc(O)ccc32)c2ccccc21 [F, Fluorescein]
penetration into the hair follicles [1]: no efficient penetration into the hair follicles
